# Measured values: ChEMBL document CHEMBL2434920, “Synthesis, characterization and in vitro biological evaluation of some novel 1,3,5-triazine-Schiff base conjugates as potential antimycobacterial agents” (Bioorg Med Chem Lett, 2013)
# Columns and labels:
# [1] = system: Mycobacterium tuberculosis; test: Antimycobacterial activity against Mycobacterium tuberculosis H37Rv assessed as growth inhibition after 5 days by microplate Alamar Blue assay; type: functional; conditions: 120 h
# Vero = test: Cytotoxicity against African green monkey Vero cells assessed as cell viability after 72 hrs by MTT assay; type: cell-based; conditions: Chlorocebus sabaeus
SMILES,MIC [1] [µg/mL],IC50 (Vero) [µg/mL]
COc1nc(C)nc(/N=C(\C)c2ccccc2O)n1,25,> 50
COc1nc(C)nc(/N=C(\C)c2ccc(O)cc2)n1,25,> 50
COc1nc(C)nc(/N=C(\C)c2ccc(O)cc2O)n1,25,> 50
COc1nc(C)nc(/N=C(\C)c2cc(O)ccc2O)n1,6.25,> 50
COc1nc(C)nc(/N=C(\C)c2cc(C)ccc2O)n1,50,–
COc1nc(C)nc(/N=C(\C)c2cccc(C)c2O)n1,50,–
COc1nc(C)nc(/N=C(\C)c2cccc([N+](=O)[O-])c2)n1,25,> 50
COc1nc(C)nc(/N=C(\C)c2ccc([N+](=O)[O-])cc2)n1,12.5,> 50
COc1nc(C)nc(/N=C(\C)c2cccs2)n1,25,> 50
COc1nc(C)nc(/N=C(\C)c2cccnc2)n1,50,–
COc1nc(C)nc(/N=C(\C)c2ccc3ccccc3c2)n1,50,–
COc1nc(C)nc(/N=C(\C)c2ccc3c(c2)Cc2ccccc2-3)n1,50,–
COc1nc(C)nc(/N=C/c2ccc(C)cc2)n1,25,> 50
COc1nc(C)nc(/N=C/c2ccc(N(C)C)cc2)n1,25,> 50
COc1nc(C)nc(/N=C/c2cc(OC)c(OC)c(OC)c2)n1,3.12,> 50
CCOc1cc(/C=N/c2nc(C)nc(OC)n2)ccc1O,25,> 50
COc1nc(C)nc(/N=C/c2cccc([N+](=O)[O-])c2)n1,50,–
COc1nc(C)nc(/N=C/c2ccc(Cl)cc2)n1,12.5,> 50

SMILES,MIC [1] [µg/mL],IC50 (Vero) [µg/mL]
COc1nc(C)nc(/N=C/c2ccc(Cl)cc2Cl)n1,12.5,> 50
COc1nc(C)nc(/N=C/c2cccc(Br)c2)n1,12.5,> 50
COc1nc(C)nc(/N=C/c2ccc(Br)cc2)n1,25,> 50
COc1nc(C)nc(/N=C/c2cc(Cl)cc(Br)c2O)n1,6.25,> 50
C=CCOc1ccc(/C=N/c2nc(C)nc(OC)n2)cc1,25,> 50
COc1nc(C)nc(/N=C/c2ccc[nH]2)n1,25,> 50
COc1nc(C)nc(/N=C/c2cccnc2)n1,50,–
COc1nc(C)nc(/N=C/c2c[nH]c3ccccc23)n1,50,–
COc1nc(C)nc(/N=C/c2c3ccccc3cc3ccccc23)n1,50,–
COc1nc(C)nc(/N=C(\C)c2ccccc2)n1,50,–
COc1nc(C)nc(/N=C(\C)c2ccc(C)cc2)n1,12.5,> 50
COc1cccc(/C(C)=N/c2nc(C)nc(OC)n2)c1,12.5,> 50
COc1ccc(/C(C)=N/c2nc(C)nc(OC)n2)cc1,50,–
COc1nc(C)nc(/N=C/c2ccccc2)n1,50,–
CC[C@@H](CO)NCCN[C@@H](CC)CO [ETHAMBUTOL],3.12,> 50
NC(=O)c1cnccn1 [PYRAZINAMIDE],3.12,> 50
CN[C@@H]1[C@H](O[C@H]2[C@H](O[C@H]3[C@H](O)[C@@H](O)[C@H](N=C(N)N)[C@@H](O)[C@@H]3N=C(N)N)O[C@@H](C)[C@]2(O)C=O)O[C@@H](CO)[C@H](O)[C@H]1O [STREPTOMYCIN],6.25,> 50
